Experimental data as given in the supplement of paper PMC13380429.

Experiments:
Conditions in all cases: 72 h
Calu-3 [1] = test: relative viability EC50 (midpoint between 100% and the lowest measured viability); higher = less toxic
HepG2 [2] = test: as above
Vero E6 [3] = test: as above
U2OS [4] = test: as above
Caco-2 [5] = test: as above
Calu-3 [6] = test: cell viability relative to DMSO; higher = less toxic
HepG2 [7] = test: as above
Vero E6 [8] = test: as above
U2OS [9] = test: as above
Caco-2 [10] = test: as above
Calu-3 [11] = test: drug sensitivity score (DSS) for viability; higher = more toxic; extreme values may be limits of the assay
HepG2 [12] = test: as above
Vero E6 [13] = test: as above
U2OS [14] = test: as above
Caco-2 [15] = test: as above

Structure (SMILES) | relative viability EC50 (Calu-3 [1]) [µM] | relative viability EC50 (HepG2 [2]) [µM] | relative viability EC50 (Vero E6 [3]) [µM] | relative viability EC50 (U2OS [4]) [µM] | relative viability EC50 (Caco-2 [5]) [µM] | cell viability (Calu-3 [6]; 1 nM) [%] | cell viability (Calu-3 [6]; 10 nM) [%] | cell viability (Calu-3 [6]; 100 nM) [%] | cell viability (Calu-3 [6]; 1000 nM) [%] | cell viability (Calu-3 [6]; 10000 nM) [%] | cell viability (HepG2 [7]; 1 nM) [%] | cell viability (HepG2 [7]; 10 nM) [%] | cell viability (HepG2 [7]; 100 nM) [%] | cell viability (HepG2 [7]; 1000 nM) [%] | cell viability (HepG2 [7]; 10000 nM) [%] | cell viability (Vero E6 [8]; 1 nM) [%] | cell viability (Vero E6 [8]; 10 nM) [%] | cell viability (Vero E6 [8]; 100 nM) [%] | cell viability (Vero E6 [8]; 1000 nM) [%] | cell viability (Vero E6 [8]; 10000 nM) [%] | cell viability (U2OS [9]; 1 nM) [%] | cell viability (U2OS [9]; 10 nM) [%] | cell viability (U2OS [9]; 100 nM) [%] | cell viability (U2OS [9]; 1000 nM) [%] | cell viability (U2OS [9]; 10000 nM) [%] | cell viability (Caco-2 [10]; 1 nM) [%] | cell viability (Caco-2 [10]; 10 nM) [%] | cell viability (Caco-2 [10]; 100 nM) [%] | cell viability (Caco-2 [10]; 1000 nM) [%] | cell viability (Caco-2 [10]; 10000 nM) [%] | drug sensitivity score (Calu-3 [11]) | drug sensitivity score (HepG2 [12]) | drug sensitivity score (Vero E6 [13]) | drug sensitivity score (U2OS [14]) | drug sensitivity score (Caco-2 [15])
CC[C@H]1[C@@H]2C[C@H]3[C@@H]4N(C)c5ccccc5[C@]45C[C@@H]([C@@H]2[C@H]5O)N3[C@@H]1O [ajmaline] | > 10 | > 10 | > 10 | > 10 | > 10 | 101 | 108 | 91.9 | 104 | 108 | 92 | 90 | 95 | 105 | 94.7 | 96.1 | 95 | 105 | 99.5 | 88.9 | 96 | 101 | 95.7 | 102 | 97.5 | 101 | 94 | 94.9 | 90.6 | 88 | 0 | 0 | 0 | 0 | 0.1
Cc1cc(Cn2nnc3c(-c4ccco4)nc(N)nc32)ccc1N [vipadenant] | > 10 | > 10 | > 10 | > 10 | > 10 | 108 | 103 | 108 | 94.1 | 107 | 81.9 | 80.5 | 99 | 91.8 | 96.3 | 109 | 105 | 99.7 | 92.8 | 88.7 | 99.6 | 97.7 | 98.2 | 98.7 | 101 | 110 | 106 | 115 | 113 | 97.1 | 0 | 0 | 0.2 | 0 | 0
O=[N+]([O-])C(Br)(CO)CO [bronopol] | > 10 | > 10 | > 10 | > 10 | > 10 | 110 | 98.6 | 91.6 | 103 | 105 | 112 | 108 | 107 | 93.3 | 108 | 105 | 84.2 | 106 | 90.6 | 99 | 95.5 | 102 | 95.7 | 101 | 102 | 95.2 | 95.2 | 96.5 | 98.7 | 113 | 0 | 0 | 0 | 0 | 0
CCCc1nc(C(C)(C)O)c(C(=O)O)n1Cc1ccc(-c2ccccc2-c2nnn[nH]2)cc1 [olmesartan] | > 10 | > 10 | > 10 | > 10 | > 10 | 105 | 101 | 102 | 98 | 101 | 93.8 | 108 | 93.3 | 98.7 | 99.6 | 98.8 | 102 | 97.2 | 96.9 | 92.7 | 98.2 | 96.5 | 98.7 | 93.5 | 99.6 | 93 | 95.5 | 91.8 | 90.9 | 99.3 | 0 | 0 | 0 | 0 | 0
CC(C)[C@H]1c2ccc(F)cc2CC[C@@]1(CCN(C)CCCc1nc2ccccc2[nH]1)OC(=O)C1CC1 [NNC-55-0396] | 3.14 | 2.93 | 2.29 | 2.96 | 2.95 | 106 | 105 | 100 | 99.7 | 2.2 | 109 | 104 | 98.7 | 96.8 | 0 | 95.2 | 96.1 | 93.5 | 89.4 | -0.1 | 98.9 | 99.1 | 94.4 | 97.2 | 2.8 | 85.5 | 102 | 93.6 | 97.2 | 4.5 | 5.5 | 6 | 7.3 | 5.8 | 5.7
O=C(Nc1ccccc1)c1cc([N+](=O)[O-])ccc1Cl [GW-9662] | > 10 | > 10 | > 10 | > 10 | > 10 | 93.7 | 93.6 | 101 | 100 | 96.7 | 94.9 | 100 | 90 | 102 | 88.3 | 103 | 106 | 98.2 | 99.9 | 97.7 | 106 | 91.7 | 101 | 91.6 | 96.8 | 98 | 94.1 | 103 | 90.1 | 93.3 | 0 | 0 | 0 | 0 | 0
C/C(O)=C(\C#N)C(=O)Nc1ccc(C(F)(F)F)cc1 [teriflunomide] | > 10 | > 10 | > 10 | > 10 | > 10 | 104 | 97.2 | 95.3 | 105 | 94.2 | 104 | 107 | 93.4 | 98.1 | 94.4 | 102 | 101 | 97.1 | 98.2 | 93.9 | 102 | 98 | 102 | 99.8 | 99.7 | 98.1 | 98.2 | 102 | 95.1 | 94.1 | 0 | 0 | 0 | 0 | 0
CN/C(=N\c1ccc(C2=NNC(=O)CC2C)cc1)NC#N (stereo not given) [siguazodan] | > 10 | > 10 | > 10 | > 10 | > 10 | 102 | 100 | 98.9 | 102 | 98.6 | 114 | 91.1 | 104 | 107 | 105 | 103 | 104 | 104 | 98.9 | 105 | 103 | 103 | 97.6 | 105 | 99.7 | 105 | 97.2 | 97.2 | 96.6 | 90.6 | 0 | 0 | 0 | 0 | 0
CCN(CC)c1ccc(C(=C2C=CC(=[N+](CC)CC)C=C2)c2ccccc2)cc1 [brilliant-green] | 0.235 | 0.128 | 0.328 | 0.0933 | 0.148 | 94.6 | 101 | 72.4 | 16.2 | 0 | 109 | 97.7 | 58.8 | 5.2 | -0.3 | 96.5 | 97.8 | 94.2 | 6.8 | -0.2 | 93.6 | 95.5 | 47.8 | 0.8 | -0.2 | 92.4 | 92.5 | 69.4 | 0.4 | -0.3 | 18.7 | 22.3 | 17.7 | 24.1 | 21.9
O=C1OC2(c3ccc(O)cc3Oc3cc(O)ccc32)c2ccccc21 [fluorescein] | > 10 | > 10 | > 10 | > 10 | > 10 | 97.5 | 101 | 101 | 93.6 | 101 | 97.9 | 99.1 | 108 | 94.7 | 97.7 | 102 | 94.6 | 106 | 107 | 101 | 99.5 | 101 | 95.2 | 97.7 | 92.5 | 108 | 116 | 117 | 120 | 98.3 | 0 | 0 | 0 | 0 | 0
Cn1cc(-c2ccc(S(=O)(=O)n3ccc(/C=C/C(=O)Nc4ccccc4N)c3)cc2)cn1 [4SC-202] | 0.26 | 0.623 | 1.12 | 1.36 | 1.07 | 91.7 | 86 | 78.7 | 45.9 | 23.8 | 88.5 | 102 | 92.7 | 52.4 | 25.8 | 96.7 | 104 | 91 | 69.9 | 30.8 | 95.8 | 96.6 | 102 | 72.5 | 13.3 | 85.2 | 96.9 | 102 | 73.4 | 42 | 13.3 | 10.1 | 7.2 | 8.8 | 6.6
